#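 Assay format: 96-well plates, 48-hour exposure. GI50 is the concentration that inhibits growth by half. TGI marks complete inhibition of growth.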
# Experiments:
# Experiment in all cases: NCI tumour cell line growth inhibition, 48 h
# RPMI-8226 leukemia = system: RPMI-8226 leukemia
# CCRF-CEM leukemia = system: CCRF-CEM leukemia
# OVCAR-4 ovarian = system: OVCAR-4 ovarian
# HCT-15 colon = system: HCT-15 colon
# BT-549 breast = system: BT-549 breast
# MOLT-4 leukemia = system: MOLT-4 leukemia
# HOP-62 NSCLC = system: HOP-62 NSCLC
# SNB-75 CNS = system: SNB-75 CNS
# IGROV1 ovarian = system: IGROV1 ovarian
# PC-3 prostate = system: PC-3 prostate
# SK-MEL-28 melanoma = system: SK-MEL-28 melanoma
# TK-10 renal = system: TK-10 renal
# T-47D breast = system: T-47D breast
# EKVX NSCLC = system: EKVX NSCLC
# HT29 colon = system: HT29 colon
# UACC-257 melanoma = system: UACC-257 melanoma
# NCI-H23 lung = system: NCI-H23 lung
# NCI/ADR-RES ovarian = system: NCI/ADR-RES ovarian
# SR leukemia = system: SR leukemia
# UO-31 renal = system: UO-31 renal
# NCI-H226 lung = system: NCI-H226 lung
# HL-60(TB) leukemia = system: HL-60(TB) leukemia
# OVCAR-5 ovarian = system: OVCAR-5 ovarian
# SW-620 colon = system: SW-620 colon
# K-562 leukemia = system: K-562 leukemia
# A498 renal = system: A498 renal
# SF-539 CNS = system: SF-539 CNS
# A549 NSCLC = system: A549 NSCLC
# SK-MEL-5 melanoma = system: SK-MEL-5 melanoma
# CAKI-1 renal = system: CAKI-1 renal
# SN12C renal = system: SN12C renal
# SK-OV-3 ovarian = system: SK-OV-3 ovarian
# OVCAR-3 ovarian = system: OVCAR-3 ovarian
# DU-145 prostate = system: DU-145 prostate
# MDA-MB-231 breast = system: MDA-MB-231 breast
# MDA-MB-435 = system: MDA-MB-435
# ACHN renal = system: ACHN renal
# OVCAR-8 ovarian = system: OVCAR-8 ovarian
# 786-0 renal = system: 786-0 renal
# NCI-H460 lung = system: NCI-H460 lung
# COLO 205 colon = system: COLO 205 colon
# HCT-116 colon = system: HCT-116 colon
# MCF7 breast = system: MCF7 breast
# LOX IMVI melanoma = system: LOX IMVI melanoma
# HOP-92 NSCLC = system: HOP-92 NSCLC
# SK-MEL-2 melanoma = system: SK-MEL-2 melanoma
# HCC-2998 colon = system: HCC-2998 colon
# MALME-3M melanoma = system: MALME-3M melanoma
# M14 melanoma = system: M14 melanoma
# RXF 393 renal = system: RXF 393 renal
# HS 578T breast = system: HS 578T breast
# UACC-62 melanoma = system: UACC-62 melanoma
# U251 CNS = system: U251 CNS
# SF-268 CNS = system: SF-268 CNS
# SNB-19 CNS = system: SNB-19 CNS
# NCI-H522 lung = system: NCI-H522 lung
# KM12 colon = system: KM12 colon
# SF-295 CNS = system: SF-295 CNS
compound,measurement,setting,value
COc1cc2nc(Cl)nc(Nc3cccc(C4=Nc5c(N)nc(N)nc5NC(c5ccc(Cl)cc5)C4)c3)c2cc1OC (configuration not stated),GI50,RPMI-8226 leukemia,1.97 µM
same,TGI,RPMI-8226 leukemia,4.84 µM
same,GI50,CCRF-CEM leukemia,1.59 µM
same,TGI,CCRF-CEM leukemia,5.3 µM
same,GI50,OVCAR-4 ovarian,2 µM
same,TGI,OVCAR-4 ovarian,4.81 µM
same,GI50,HCT-15 colon,2.07 µM
same,TGI,HCT-15 colon,4.8 µM
same,GI50,BT-549 breast,7.93 µM
same,TGI,BT-549 breast,38 µM
same,GI50,MOLT-4 leukemia,1.75 µM
same,TGI,MOLT-4 leukemia,5.1 µM
same,GI50,HOP-62 NSCLC,5.24 µM
same,TGI,HOP-62 NSCLC,32.5 µM
same,GI50,SNB-75 CNS,2.39 µM
same,TGI,SNB-75 CNS,14.3 µM
same,GI50,IGROV1 ovarian,2.9 µM
same,TGI,IGROV1 ovarian,10.9 µM
same,GI50,PC-3 prostate,3.97 µM
same,TGI,PC-3 prostate,37.9 µM
same,GI50,SK-MEL-28 melanoma,1.66 µM
same,TGI,SK-MEL-28 melanoma,3.1 µM
same,GI50,TK-10 renal,2.62 µM
same,TGI,TK-10 renal,6.87 µM
same,GI50,T-47D breast,2.02 µM
same,TGI,T-47D breast,4.61 µM
same,GI50,EKVX NSCLC,2.44 µM
same,TGI,EKVX NSCLC,9.17 µM
same,GI50,HT29 colon,2.05 µM
same,TGI,HT29 colon,4.53 µM
same,GI50,UACC-257 melanoma,2.43 µM
same,TGI,UACC-257 melanoma,6.22 µM
same,GI50,NCI-H23 lung,2.69 µM
same,TGI,NCI-H23 lung,8.4 µM
same,GI50,NCI/ADR-RES ovarian,4.16 µM
same,TGI,NCI/ADR-RES ovarian,92 µM
same,GI50,SR leukemia,1.91 µM
same,TGI,SR leukemia,5.33 µM
same,GI50,UO-31 renal,2.48 µM
same,TGI,UO-31 renal,8.89 µM
same,GI50,NCI-H226 lung,14.9 µM
same,TGI,NCI-H226 lung,50.1 µM
same,GI50,HL-60(TB) leukemia,1.79 µM
same,TGI,HL-60(TB) leukemia,4.18 µM
same,GI50,OVCAR-5 ovarian,2.12 µM
same,TGI,OVCAR-5 ovarian,5.25 µM
same,GI50,SW-620 colon,1.85 µM
same,TGI,SW-620 colon,3.79 µM
same,GI50,K-562 leukemia,1.91 µM
same,TGI,K-562 leukemia,4.16 µM
same,GI50,A498 renal,10.5 µM
same,TGI,A498 renal,26.9 µM
same,GI50,SF-539 CNS,1.72 µM
same,TGI,SF-539 CNS,3.13 µM
same,GI50,A549 NSCLC,3.14 µM
same,TGI,A549 NSCLC,16.1 µM
same,GI50,SK-MEL-5 melanoma,1.68 µM
same,TGI,SK-MEL-5 melanoma,3.08 µM
same,GI50,CAKI-1 renal,1.99 µM
same,TGI,CAKI-1 renal,4.49 µM
same,GI50,SN12C renal,2.68 µM
same,TGI,SN12C renal,8.1 µM
same,GI50,SK-OV-3 ovarian,21.8 µM
same,TGI,SK-OV-3 ovarian,48 µM
same,GI50,OVCAR-3 ovarian,2.04 µM
same,TGI,OVCAR-3 ovarian,4.2 µM
same,GI50,DU-145 prostate,2.07 µM
same,TGI,DU-145 prostate,4.84 µM
same,GI50,MDA-MB-231 breast,1.63 µM
same,TGI,MDA-MB-231 breast,3.29 µM
same,GI50,MDA-MB-435,1.64 µM
same,TGI,MDA-MB-435,3.07 µM
same,GI50,ACHN renal,2.15 µM
same,TGI,ACHN renal,4.87 µM
same,GI50,OVCAR-8 ovarian,2.35 µM
same,TGI,OVCAR-8 ovarian,5.99 µM
COc1cc(OC)cc(C(=O)Nc2cccc(C#Cc3cccc4[nH]nc(N)c34)c2)c1,GI50,RPMI-8226 leukemia,1.77 µM
same,TGI,RPMI-8226 leukemia,17.8 µM
same,GI50,CCRF-CEM leukemia,0.808 µM
same,TGI,CCRF-CEM leukemia,> 56 µM
same,GI50,OVCAR-4 ovarian,3.51 µM
same,TGI,OVCAR-4 ovarian,23.6 µM
same,GI50,HCT-15 colon,0.492 µM
same,TGI,HCT-15 colon,12.5 µM
same,GI50,BT-549 breast,1.32 µM
same,TGI,BT-549 breast,6.32 µM
same,GI50,786-0 renal,2.24 µM
same,TGI,786-0 renal,11.3 µM
same,GI50,MOLT-4 leukemia,0.931 µM
same,TGI,MOLT-4 leukemia,17.8 µM
same,GI50,HOP-62 NSCLC,1.71 µM
same,TGI,HOP-62 NSCLC,22.5 µM
same,GI50,NCI-H460 lung,0.586 µM
same,TGI,NCI-H460 lung,10.8 µM
same,GI50,COLO 205 colon,1.16 µM
same,TGI,COLO 205 colon,3.63 µM
same,GI50,SNB-75 CNS,0.306 µM
same,TGI,SNB-75 CNS,2.71 µM
same,GI50,IGROV1 ovarian,1.13 µM
same,TGI,IGROV1 ovarian,11.1 µM
same,GI50,HCT-116 colon,0.548 µM
same,TGI,HCT-116 colon,10.7 µM
same,GI50,PC-3 prostate,2.05 µM
same,TGI,PC-3 prostate,> 41.2 µM
same,GI50,SK-MEL-28 melanoma,1.76 µM
same,TGI,SK-MEL-28 melanoma,15.7 µM
same,GI50,MCF7 breast,0.469 µM
same,TGI,MCF7 breast,12.3 µM
same,GI50,TK-10 renal,4.29 µM
same,TGI,TK-10 renal,12.4 µM
same,GI50,T-47D breast,1.21 µM
same,TGI,T-47D breast,13.8 µM
same,GI50,LOX IMVI melanoma,0.759 µM
same,TGI,LOX IMVI melanoma,7.18 µM
same,GI50,HOP-92 NSCLC,2.3 µM
same,TGI,HOP-92 NSCLC,11.7 µM
same,GI50,SK-MEL-2 melanoma,0.428 µM
same,TGI,SK-MEL-2 melanoma,1.96 µM
same,GI50,EKVX NSCLC,2.92 µM
same,TGI,EKVX NSCLC,> 38.2 µM
same,GI50,HT29 colon,0.641 µM
same,TGI,HT29 colon,5.37 µM
same,GI50,UACC-257 melanoma,2.04 µM
same,TGI,UACC-257 melanoma,11.8 µM
same,GI50,NCI-H23 lung,2.14 µM
same,TGI,NCI-H23 lung,11.7 µM
same,GI50,HCC-2998 colon,1.98 µM
same,TGI,HCC-2998 colon,4.92 µM
same,GI50,NCI/ADR-RES ovarian,1.66 µM
same,TGI,NCI/ADR-RES ovarian,8.54 µM
same,GI50,SR leukemia,0.133 µM
same,TGI,SR leukemia,5.48 µM
same,GI50,UO-31 renal,2.99 µM
same,TGI,UO-31 renal,12.1 µM
same,GI50,MALME-3M melanoma,0.782 µM
same,TGI,MALME-3M melanoma,13.1 µM
same,GI50,NCI-H226 lung,1.93 µM
same,TGI,NCI-H226 lung,9.03 µM
same,GI50,HL-60(TB) leukemia,0.441 µM
same,TGI,HL-60(TB) leukemia,2.51 µM
same,GI50,OVCAR-5 ovarian,2.97 µM
same,TGI,OVCAR-5 ovarian,45.5 µM
same,GI50,SW-620 colon,0.689 µM
same,TGI,SW-620 colon,> 35 µM
same,GI50,M14 melanoma,0.535 µM
same,TGI,M14 melanoma,4.55 µM
same,GI50,K-562 leukemia,0.331 µM
same,TGI,K-562 leukemia,> 100 µM
same,GI50,A498 renal,4.5 µM
same,TGI,A498 renal,11.1 µM
same,GI50,RXF 393 renal,0.584 µM
same,TGI,RXF 393 renal,3.03 µM
same,GI50,SF-539 CNS,0.621 µM
same,TGI,SF-539 CNS,2.19 µM
same,GI50,HS 578T breast,1.25 µM
same,TGI,HS 578T breast,5.43 µM
same,GI50,UACC-62 melanoma,0.478 µM
same,TGI,UACC-62 melanoma,6.49 µM
same,GI50,U251 CNS,0.821 µM
same,TGI,U251 CNS,15 µM
same,GI50,A549 NSCLC,1.43 µM
same,TGI,A549 NSCLC,18.3 µM
same,GI50,SK-MEL-5 melanoma,1.01 µM
same,TGI,SK-MEL-5 melanoma,3.29 µM
same,GI50,CAKI-1 renal,1.64 µM
same,TGI,CAKI-1 renal,7.18 µM
same,GI50,SN12C renal,2.7 µM
same,TGI,SN12C renal,13.9 µM
same,GI50,SK-OV-3 ovarian,3.68 µM
same,TGI,SK-OV-3 ovarian,22.6 µM
same,GI50,OVCAR-3 ovarian,0.943 µM
same,TGI,OVCAR-3 ovarian,11.8 µM
same,GI50,SF-268 CNS,2.06 µM
same,TGI,SF-268 CNS,11 µM
same,GI50,SNB-19 CNS,2.46 µM
same,TGI,SNB-19 CNS,30.9 µM
same,GI50,DU-145 prostate,2.93 µM
same,TGI,DU-145 prostate,> 39 µM
same,GI50,MDA-MB-231 breast,1.28 µM
same,TGI,MDA-MB-231 breast,5.14 µM
same,GI50,NCI-H522 lung,0.485 µM
same,TGI,NCI-H522 lung,2.7 µM
same,GI50,MDA-MB-435,0.201 µM
same,TGI,MDA-MB-435,0.49 µM
same,GI50,ACHN renal,2.64 µM
same,TGI,ACHN renal,14.7 µM
same,GI50,KM12 colon,0.957 µM
same,TGI,KM12 colon,10.4 µM
same,GI50,SF-295 CNS,1.13 µM
same,TGI,SF-295 CNS,5.17 µM
same,GI50,OVCAR-8 ovarian,2.36 µM
same,TGI,OVCAR-8 ovarian,13.7 µM

# — PubChem BioAssay (NCI)
